Test results from US12285459B2, “Saposin-A derived peptides and uses thereof” (CHILDREN'S MEDICAL CENTER CORPORATION, priority 2011, dated 2025).

How the values were obtained:
[1] = test system: Tsp-1 expression in Gr1+ cells; test: Tsp-1 in Gr1+ cells in lungs of mice given PC3M-LN4 CM plus peptide; type: in vivo, C57BL/6J mice
Experimental: CM from PC3M-LN4 cells cultured in serum-free medium for 24 hours was harvested, centrifuged and filtered through […] pore-size filters to remove any cells or cell debris. Wild-type C57BL/6J mice were treated with 200 μL serum-free conditioned media from PC3M-LN4 cells daily for 6 days via intraperitoneal (i.p.) injection in combination with DWLPK (SEQ ID NO: 4) peptide or scrambled peptide.
Animals were euthanized at the end of experiments and lungs were quickly perfused by injecting 5 ml of cold PBS through the right ventricle of the heart. One part of the lung from each animal was fixed in 3.7% formalin and the other part was sorted by flow cytometry for either protein or RNA extraction.
For microscopy, following formalin fixation, tissues were cryoembedded in Tissue-Tek O.C.T. embedding compound (Electron Microscopy Sciences). Sections (30 μm) were washed 3 times in PBS and incubated in blocking/permeabilization buffer (PBS+2 mM EDTA, 1% BSA, 1% Goat Serum, 0.05% Triton X-100). […]
Total RNA from flow cytometry sorted cells was extracted using the PicoPure RNA extraction kit (Arcturus) following the manufacturer's protocol. […] The relative abundance of each transcript compared with the control was calculated utilizing the delta-Ct method.

[2] = test system: PC3M-LN4 prostate cancer cells; test: Orthotopic PC3M-LN4 prostate tumor model; type: in vivo, SCID mice; details: 30 mg/kg/day i.p. from day 26 for 16 days; PBS control
Experimental: C57Bl6 SCID mice were injected with 1×10^6 PC3M-LN4 prostate cancer cells in the prostate gland as described previously (Kang et al). After 26 days the animals were treated with either PBS or peptides corresponding to residues 36-40 or 36-39 of saposin A at a dose of 30 mg/kg/day via intraperitoneal (i.p.) injection. After 16 days of treatment all animals were sacrificed, prostate tumors were weighed and harvested, along with the lungs of animals. Tissues were either fixed in NBF, or lysed and analyzed for Tsp-1 and p53 expression by western blot analysis.
The peptides were then tested for their ability to inhibit tumor growth and metastasis in three models, the PC3M-LN4 prostate cancer model, the B16-B6 melanoma model and the Lewis Lung Carcinoma (LLC) model. 1×10^6 PC3M-LN4 cells were first injected into the prostate gland of SCID mice. After 26 days these mice were treated with either PBS alone or the 4- or 5-amino acid peptide at a dose of 30 mg/kg/day via i.p. injection. The mice were treated for 16 days after which the mice were examined the size of the tumors and the expression of Tsp-1 and p53 in the primary tumors and lungs of the animals. The tumors in animals treated with the 4- and 5-amino acid peptides were, on average, 45% and 40% the size of control animals, respectively (FIG. 6).

## DWLPK [5-amino acid peptide corresponding to residues 36-40 of saposin A]
[1]; LN4 CM alone or in combination with peptide
  recruitment of Gr1+ cells in the lungs: identical regardless of the treatment
[1]; LN4 CM daily for 6 days i.p. in combination with peptide
  Tsp-1 expression in the Gr1+ cells: more than two fold
[2]
  prostate tumor size relative to control animals: 40%
